In article PMC4856769 (Cell Research, 2016):

Molecular target: T1, YEATS domain of YEATS2 (YEATS2 201-332) (Homo sapiens, UniProt Q9ULM3)
T1 sequence (Q9ULM3 201-332): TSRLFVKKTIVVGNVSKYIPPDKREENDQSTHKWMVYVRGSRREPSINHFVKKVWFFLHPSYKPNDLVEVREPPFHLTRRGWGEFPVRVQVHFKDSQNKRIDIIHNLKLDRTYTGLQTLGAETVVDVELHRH
Test: ITC binding of histone peptides to the YEATS domain of YEATS2

| Compound | Kd | binding (in words) (ITC, 15°C, wild type YEATS2 201-332) |
| --- | --- | --- |
| C/C=C/C(=O)NCCCC[C@H](NC(=O)[C@@H](NC(=O)[C@H](CCCNC(=N)N)NC(=O)[C@H](C)N)[C@@H](C)O)C(=O)N[C@@H](CCC(N)=O)C(=O)N[C@H](C(=O)N[C@@H](C)C(=O)N[C@@H](CCCNC(=N)N)C(=O)N[C@@H](CCCCN)C(=O)N[C@@H](CO)C(=O)N[C@H](C(=O)NCC(=O)NCC(=O)N[C@@H](CCCCN)C(=O)N[C@@H](C)C(=O)O)[C@@H](C)O)[C@@H](C)O [H31-15K4cr] | 121 µM |  |
| ARTKQT ARKST GGK(cr)APRKQLATKAA [H31-25K14cr] |  | No binding |
